Experimental data taken from PubChem BioAssay (NCI).
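Compound exposure: 48 hours, 5 concentrations, 96-well plates. Here, GI50 denotes the concentration required for 50% inhibition of growth. TGI denotes the concentration required for complete inhibition of growth.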

Tests used:
Assay in all cases: NCI anticancer screen, dose series, 48 h
[1] = test system: HOP-62 NSCLC
[2] = test system: U251 CNS
[3] = test system: A498 renal
[4] = test system: ACHN renal
[5] = test system: M14 melanoma
[6] = test system: SNB-75 CNS
[7] = test system: SK-MEL-28 melanoma
[8] = test system: A549 NSCLC
[9] = test system: NCI-H23 lung
[10] = test system: HOP-92 NSCLC
[11] = test system: MDA-MB-231 breast
[12] = test system: SNB-19 CNS
[13] = test system: HL-60(TB) leukemia
[14] = test system: T-47D breast
[15] = test system: CAKI-1 renal
[16] = test system: CCRF-CEM leukemia
[17] = test system: NCI-H226 lung
[18] = test system: HS 578T breast
[19] = test system: HCT-15 colon
[20] = test system: EKVX NSCLC
[21] = test system: TK-10 renal
[22] = test system: RXF 393 renal
[23] = test system: SR leukemia
[24] = test system: UACC-62 melanoma
[25] = test system: SF-295 CNS
[26] = test system: COLO 205 colon
[27] = test system: SK-OV-3 ovarian
[28] = test system: BT-549 breast
[29] = test system: DU-145 prostate
[30] = test system: OVCAR-8 ovarian
[31] = test system: MCF7 breast
[32] = test system: SW-620 colon
[33] = test system: NCI/ADR-RES ovarian
[34] = test system: UACC-257 melanoma
[35] = test system: MDA-MB-435
[36] = test system: PC-3 prostate
[37] = test system: OVCAR-5 ovarian
[38] = test system: KM12 colon
[39] = test system: NCI-H460 lung
[40] = test system: 786-0 renal
[41] = test system: SN12C renal
[42] = test system: SK-MEL-2 melanoma
[43] = test system: LOX IMVI melanoma
[44] = test system: NCI-H522 lung
[45] = test system: HT29 colon
[46] = test system: MOLT-4 leukemia
[47] = test system: UO-31 renal
[48] = test system: HCC-2998 colon
[49] = test system: MALME-3M melanoma
[50] = test system: SK-MEL-5 melanoma
[51] = test system: RPMI-8226 leukemia
[52] = test system: OVCAR-4 ovarian
[53] = test system: IGROV1 ovarian
[54] = test system: SF-268 CNS
[55] = test system: HCT-116 colon
[56] = test system: SF-539 CNS

In the case of CCCCCCCCNC(=O)c1ccc(Cn2c(CCCC)nc3c(N)nc4ccccc4c32)cc1, the GI50 [1] is reported as 2570 nM, the TGI [1] is reported as 11100 nM and the GI50 [2] is reported as 1830 nM. The TGI [2] was 3980 nM, the GI50 [3] was 2350 nM and the TGI [3] was 11300 nM. The GI50 [4] was 1720 nM, the TGI [4] was 3660 nM and the GI50 [5] was 1740 nM. It also gave a TGI [5] of 3480 nM, a GI50 [6] of 1720 nM and a TGI [6] of 4200 nM. It also gave a GI50 [7] of 1630 nM, a TGI [7] of 3050 nM and a GI50 [8] of 3160 nM. It also gave a TGI [8] of 12300 nM, a GI50 [9] of 2860 nM and a TGI [9] of 12500 nM. It also gave a GI50 [10] of 26.9 nM, a TGI [10] of 838 nM and a GI50 [11] of 1540 nM. For the same compound, the TGI [11] was 3550 nM, the GI50 [12] was 2800 nM and the TGI [12] was 10200 nM. The GI50 [13] was 1830 nM, the TGI [13] was 4610 nM and the GI50 [14] was 1750 nM. For the same compound, the TGI [14] was 3950 nM, the GI50 [15] was 1650 nM and the TGI [15] was 6240 nM. For the same compound, the GI50 [16] was 1730 nM, the TGI [16] was 4960 nM and the GI50 [17] was 14500 nM. The TGI [17] was 41400 nM, the GI50 [18] was 1960 nM and the TGI [18] was 4330 nM. For the same compound, the GI50 [19] was 1700 nM, the TGI [19] was 3870 nM and the GI50 [20] was 2850 nM. It also gave a TGI [20] of 17200 nM, a GI50 [21] of 2200 nM and a TGI [21] of 6220 nM. It also gave a GI50 [22] of 1000 nM, a TGI [22] of 2790 nM and a GI50 [23] of 1580 nM. For the same compound, the TGI [23] was 5180 nM, the GI50 [24] was 1690 nM and the TGI [24] was 3290 nM. For the same compound, the GI50 [25] was 1590 nM, the TGI [25] was 3190 nM and the GI50 [26] was 2040 nM. It also gave a TGI [26] of 4330 nM, a GI50 [27] of 2640 nM and a TGI [27] of 7470 nM. The GI50 [28] was 1910 nM, the TGI [28] was 4140 nM and the GI50 [29] was 3500 nM. For the same compound, the TGI [29] was 12100 nM, the GI50 [30] was 2040 nM and the TGI [30] was 5080 nM. The GI50 [31] was 1590 nM, the TGI [31] was 3570 nM and the GI50 [32] was 1470 nM. The TGI [32] was 3200 nM, the GI50 [33] was 1640 nM and the TGI [33] was 3420 nM. The GI50 [34] was 1860 nM, the TGI [34] was 3670 nM and the GI50 [35] was 1690 nM. It also gave a TGI [35] of 3110 nM, a GI50 [36] of 2550 nM and a TGI [36] of 11500 nM. The GI50 [37] was 3350 nM, the TGI [37] was 13800 nM and the GI50 [38] was 2490 nM. The TGI [38] was 6520 nM, the GI50 [39] was 1940 nM and the TGI [39] was 3830 nM. For the same compound, the GI50 [40] was 1710 nM, the TGI [40] was 3340 nM and the GI50 [41] was 1920 nM. It also gave a TGI [41] of 4890 nM, a GI50 [42] of 1940 nM and a TGI [42] of 3940 nM. It also gave a GI50 [43] of 1420 nM, a TGI [43] of 2820 nM and a GI50 [44] of 1890 nM. The TGI [44] was 4360 nM, the GI50 [45] was 2490 nM and the TGI [45] was 7160 nM. It also gave a GI50 [46] of 2440 nM, a TGI [46] of 8710 nM and a GI50 [47] of 459 nM. It also gave a TGI [47] of 3300 nM, a GI50 [48] of 2220 nM and a TGI [48] of 5390 nM. For the same compound, the GI50 [49] was 1800 nM, the TGI [49] was 3510 nM and the GI50 [50] was 1570 nM. For the same compound, the TGI [50] was 2910 nM, the GI50 [51] was 1370 nM and the TGI [51] was 3310 nM. It also gave a GI50 [52] of 1650 nM, a TGI [52] of 3490 nM and a GI50 [53] of 1600 nM. It also gave a TGI [53] of 4490 nM, a GI50 [54] of 2010 nM and a TGI [54] of 4630 nM. For the same compound, the GI50 [55] was 1080 nM, the TGI [55] was 2470 nM and the GI50 [56] was 1680 nM. It also gave a TGI [56] of 3190 nM.
